Experimental data reported in patent US5175100A, “Stereospecific resolution by hydrolysis of esters of 2-arylpropionic acids by liver enzymes” (Rhone-Poulenc, Inc., priority 1991, dated 1992).

Experiments:
Type in all cases: biochemical
[1] = tested on: Liver acetone powder from Turtle; assay: Hydrolysis of ketoprofen methyl ester by turtle liver acetone powder; settings: Turtle powder 10 mg, 50 mg ester, pH 7.0, room temperature, 24 hours
Description: (§1) A solution of 50 mg of ketoprofen methyl ester in 0.2 ml of ethanol was added to 10 mg of each of liver acetone powder from various animal sources (described in Table 1) in 5 ml of 0.1M potassium phosphate buffer (pH 7.0) After shaking at room temperature for 24 hours, the reaction mixtures were acidified to pH 2.0 with 6(N) HCl and extracted with 10 ml of ethyl acetate. A portion of the ethyl acetate extract was analyzed by HPLC on a Partisil 5 ODS-3 RAC column (9.4 mm×100 mm, Whatman) using a mixture of methanol and 10 mM ammonium dihydrogen phospate (9:1) and monitored by UV at 254 nm to determine the percentages of acid produced in the reaction.

[2] = tested on: Liver acetone powder from Goat; assay: Hydrolysis of ketoprofen methyl ester by goat liver acetone powder
Description: as §1
(§2) To determine the percentage of R- and S-acid, a portion of the ethyl acetate extract was converted to the amide derivative of the acid produced with R(+)-1-phenylethylamine as follows. The ethyl acetate extract (5 ml) was dried over sodium sulfate, filtered and cooled to 0° C. To the cold solution was added 0.2 ml of N-methylmorpholine followed by 0.2 ml of isobutyl chloroformate. After gentle shaking at 0° C. for 10 minutes, 0.2 ml of R(+)-1-phenylethylamine was added and the shaking was continued at 0° C. for 5 minutes and at room temperature for another 5 minutes. The reaction mixture was washed successively with water (5 ml), 1(N) HCl (5 ml), and water (5 ml) to provide the amide derivative in ethyl acetate solution. The ethyl acetate solution of the amide derivative was then analyzed by HPLC on the same column and same solvent mixture but with a different composition, i.e., a ratio of 6:4, and monitored by UV to determine the percentages of R- acid and S-acids produced by hydrolysis. The enantiomeric excess (EE) is defined as the difference in percent between the percent R- acid and the percent S-acid, the higher enantiomer being reported in the parenthesis in Table I.

[3] = tested on: Liver acetone powder from Lungfish; assay: Hydrolysis of ketoprofen methyl ester by lungfish liver acetone powder; settings: Lungfish powder 10 mg, 50 mg ester, pH 7.0, room temperature, 24 hours
Description: as §1

[4] = tested on: Liver acetone powder from Pigeon; assay: Hydrolysis of ketoprofen methyl ester by pigeon liver acetone powder
Description: as §1, §2

[5] = tested on: Liver acetone powder from Rat; assay: Hydrolysis of ketoprofen methyl ester by rat liver acetone powder
Description: as §1, §2

[6] = tested on: Liver acetone powder from Salmon; assay: Hydrolysis of ketoprofen methyl ester by salmon liver acetone powder; settings: Salmon powder 10 mg, 50 mg ester, pH 7.0, room temperature, 24 hours
Description: as §1

[7] = tested on: Liver acetone powder from Eel*; assay: Hydrolysis of ketoprofen methyl ester by eel (Anguilla anguilla) liver acetone powder; settings: Eel (Anguilla anguilla) powder 10 mg, 50 mg ester, pH 7.0, room temperature, 24 hours
Description: as §1

[8] = tested on: Liver acetone powder from Sheep; assay: Hydrolysis of ketoprofen methyl ester by sheep liver acetone powder
Description: as §1, §2

[9] = tested on: Liver acetone powder from Chicken; assay: Hydrolysis of ketoprofen methyl ester by chicken liver acetone powder
Description: as §1, §2

[10] = tested on: Liver acetone powder from Seal; assay: Hydrolysis of ketoprofen methyl ester by seal liver acetone powder
Description: as §1, §2

[11] = tested on: Liver acetone powder from Eel**; assay: Hydrolysis of ketoprofen methyl ester by eel (Electrophorous electricus) liver acetone powder; settings: Eel (Electrophorous electricus) powder 10 mg, 50 mg ester, pH 7.0, room temperature, 24 hours
Description: as §1

[12] = tested on: Liver acetone powder from Lemon Shark; assay: Hydrolysis of ketoprofen methyl ester by lemon shark liver acetone powder; settings: Lemon Shark powder 10 mg, 50 mg ester, pH 7.0, room temperature, 24 hours
Description: as §1

[13] = tested on: Liver acetone powder from Calf; assay: Hydrolysis of ketoprofen esters by calf liver acetone powder
Description: as §1, §2
(§3) Several esters of ketoprofen (0.2 millimole) with various alkyl groups of varying chain length were hydrolyzed using liver acetone powders from bovine, calf and dog by the procedure described in Example 1. The reaction mixtures were analyzed by the same procedures as described in Example 1 and the results obtained are summarized in Table II.

[14] = tested on: Liver acetone powder from Rabbit; assay: Hydrolysis of ketoprofen methyl ester by rabbit liver acetone powder
Description: as §1, §2

[15] = tested on: Liver acetone powder from Porcine; assay: Hydrolysis of ketoprofen methyl ester by porcine liver acetone powder; settings: Porcine powder 10 mg, 50 mg ester, pH 7.0, room temperature, 24 hours
Description: as §1

[16] = tested on: Liver acetone powder from Trout; assay: Hydrolysis of ketoprofen methyl ester by trout liver acetone powder; settings: Trout powder 10 mg, 50 mg ester, pH 7.0, room temperature, 24 hours
Description: as §1

[17] = tested on: Liver acetone powder from Cat; assay: Hydrolysis of ketoprofen methyl ester by cat liver acetone powder
Description: as §1, §2

[18] = tested on: Liver acetone powder from Dog; assay: Hydrolysis of ketoprofen esters by dog liver acetone powder
Description: as §1, §2, §3

[19] = tested on: Liver acetone powder from Guinea Pig; assay: Hydrolysis of ketoprofen methyl ester by guinea pig liver acetone powder; settings: Guinea Pig powder 10 mg, 50 mg ester, pH 7.0, room temperature, 24 hours
Description: as §1

[20] = tested on: Liver acetone powder from Mouse; assay: Hydrolysis of ketoprofen methyl ester by mouse liver acetone powder
Description: as §1, §2

[21] = tested on: Liver acetone powder from Horse; assay: Hydrolysis of ketoprofen methyl ester by horse liver acetone powder
Description: as §1, §2

[22] = tested on: Liver acetone powder from Bovine; assay: Hydrolysis of ketoprofen esters by bovine liver acetone powder
Description: as §1, §2, §3

[23] = Goat powder 10 mg, 50 mg ester, pH 7.0, room temperature, 24 hours
[24] = Pigeon powder 10 mg, 50 mg ester, pH 7.0, room temperature, 24 hours
[25] = Rat powder 10 mg, 50 mg ester, pH 7.0, room temperature, 24 hours
[26] = Sheep powder 10 mg, 50 mg ester, pH 7.0, room temperature, 24 hours
[27] = Chicken powder 10 mg, 50 mg ester, pH 7.0, room temperature, 24 hours
[28] = Seal powder 10 mg, 50 mg ester, pH 7.0, room temperature, 24 hours
[29] = Calf powder 10 mg, 50 mg ester, pH 7.0, room temperature, 24 hours
[30] = Calf powder, 0.2 millimole ester, procedure of Example 1
[31] = Rabbit powder 10 mg, 50 mg ester, pH 7.0, room temperature, 24 hours
[32] = Cat powder 10 mg, 50 mg ester, pH 7.0, room temperature, 24 hours
[33] = Dog powder 10 mg, 50 mg ester, pH 7.0, room temperature, 24 hours
[34] = Dog powder, 0.2 millimole ester, procedure of Example 1
[35] = Mouse powder 10 mg, 50 mg ester, pH 7.0, room temperature, 24 hours
[36] = Horse powder 10 mg, 50 mg ester, pH 7.0, room temperature, 24 hours
[37] = Bovine powder 10 mg, 50 mg ester, pH 7.0, room temperature, 24 hours
[38] = Bovine powder, 0.2 millimole ester, procedure of Example 1

COC(=O)C(C)c1cccc(C(=O)c2ccccc2)c1 (stereo not shown) [Methyl Ester of Ketoprofen, ketoprofen methyl ester]
Percentage of acid [1]: 0.6%
Percentage of Acid R-acid [2, 23]: 42.3%
Percentage of Acid S-acid [2, 23]: 57.7%
Percentage of acid [2, 23]: 15.5%
Percentage EE of acid (R or S) ([2]; Goat powder, Table 1, higher enantiomer (S)): 15.4%
Percentage of acid [3]: 3.2%
Percentage of Acid R-acid [4, 24]: 66.7%
Percentage of Acid S-acid [4, 24]: 33.3%
Percentage of acid [4, 24]: 18.0%
Percentage EE of acid (R or S) ([4]; Pigeon powder, Table 1, higher enantiomer (R)): 33.4%
Percentage of Acid R-acid [5, 25]: 52.7%
Percentage of Acid S-acid [5, 25]: 47.3%
Percentage of acid [5, 25]: 7.5%
Percentage EE of acid (R or S) ([5]; Rat powder, Table 1, higher enantiomer (R)): 5.4%
Percentage of acid [6]: 0.6%
Percentage of acid [7]: 3.0%
Percentage of Acid R-acid [8, 26]: 46.5%
Percentage of Acid S-acid [8, 26]: 53.5%
Percentage of acid [8, 26]: 18.1%
Percentage EE of acid (R or S) ([8]; Sheep powder, Table 1, higher enantiomer (S)): 7.0%
Percentage of Acid R-acid [9, 27]: 52.7%
Percentage of Acid S-acid [9, 27]: 47.3%
Percentage of acid [9, 27]: 8.1%
Percentage EE of acid (R or S) ([9]; Chicken powder, Table 1, higher enantiomer (R)): 5.4%
Percentage of Acid R-acid [10, 28]: 48.9%
Percentage of Acid S-acid [10, 28]: 51.1%
Percentage of acid [10, 28]: 14.3%
Percentage EE of acid (R or S) ([10]; Seal powder, Table 1, higher enantiomer (S)): 2.2%
Percentage of acid [11]: 1.1%
Percentage of acid [12]: 0.6%
Percentage of Acid R-acid [13, 29]: 71.6%
Percentage of Acid S-acid [13, 29]: 28.4%
Percentage of acid [13, 29]: 5.7%
Acid Produced (%) [13, 30]: 7.3%
EE(%) of R-Acid [13, 30]: 45.6%
Percent of Acid R-Acid [13, 30]: 72.8%
Percent of Acid S-Acid [13, 30]: 27.2%
Percentage EE of acid (R or S) ([13]; Calf powder, Table 1, higher enantiomer (R)): 43.2%
Percentage of Acid R-acid [14, 31]: 46.1%
Percentage of Acid S-acid [14, 31]: 53.9%
Percentage of acid [14, 31]: 54.9%
Percentage EE of acid (R or S) ([14]; Rabbit powder, Table 1, higher enantiomer (S)): 7.8%
Percentage of acid [15]: 0.9%
Percentage of acid [16]: 0.7%
Percentage of Acid R-acid [17, 32]: 64.1%
Percentage of Acid S-acid [17, 32]: 35.9%
Percentage of acid [17, 32]: 7.2%
Percentage EE of acid (R or S) ([17]; Cat powder, Table 1, higher enantiomer (R)): 28.2%
Percentage of Acid R-acid [18, 33]: 87.1%
Percentage of Acid S-acid [18, 33]: 12.9%
Percentage of acid [18, 33]: 8.0%
Acid Produced (%) [18, 34]: 6.2%
EE(%) of R-Acid [18, 34]: 76.6%
Percent of Acid R-Acid [18, 34]: 88.3%
Percent of Acid S-Acid [18, 34]: 11.7%
Percentage EE of acid (R or S) ([18]; Dog powder, Table 1, higher enantiomer (R)): 74.2%
Percentage of acid [19]: 0.8%
Percentage of Acid R-acid [20, 35]: 49.0%
Percentage of Acid S-acid [20, 35]: 51.0%
Percentage of acid [20, 35]: 9.4%
Percentage EE of acid (R or S) ([20]; Mouse powder, Table 1, higher enantiomer (R)): 2.0%
Percentage of Acid R-acid [21, 36]: 62.7%
Percentage of Acid S-acid [21, 36]: 37.3%
Percentage of acid [21, 36]: 24.1%
Percentage EE of acid (R or S) ([21]; Horse powder, Table 1, higher enantiomer (R)): 25.4%
Percentage of Acid R-acid [22, 37]: 71.2%
Percentage of Acid S-acid [22, 37]: 28.8%
Percentage of acid [22, 37]: 4.3%
Acid Produced (%) [22, 38]: 4.4%
EE(%) of R-Acid [22, 38]: 47.2%
Percent of Acid R-Acid [22, 38]: 73.6%
Percent of Acid S-Acid [22, 38]: 26.4%
Percentage EE of acid (R or S) ([22]; Bovine powder, Table 1, higher enantiomer (R)): 42.4%

CCCCCCCCOC(=O)C(C)c1cccc(C(=O)c2ccccc2)c1 (stereo not shown) [C-8]
EE(%) of R-Acid [13, 30]: 24.2%
Percent of Acid R-Acid [13, 30]: 62.1%
Percent of Acid S-Acid [13, 30]: 37.9%
EE(%) of R-Acid [18, 34]: 41.4%
Percent of Acid R-Acid [18, 34]: 70.7%
Percent of Acid S-Acid [18, 34]: 29.3%
EE(%) of R-Acid [22, 38]: 55.8%
Percent of Acid R-Acid [22, 38]: 77.9%
Percent of Acid S-Acid [22, 38]: 22.1%

CCCOC(=O)C(C)c1cccc(C(=O)c2ccccc2)c1 (stereo not shown) [C-3]
EE(%) of R-Acid [13, 30]: 38.2%
Percent of Acid R-Acid [13, 30]: 69.1%
Percent of Acid S-Acid [13, 30]: 30.9%
EE(%) of R-Acid [18, 34]: 68.2%
Percent of Acid R-Acid [18, 34]: 84.1%
Percent of Acid S-Acid [18, 34]: 15.9%
EE(%) of R-Acid [22, 38]: 41.4%
Percent of Acid R-Acid [22, 38]: 70.7%
Percent of Acid S-Acid [22, 38]: 29.3%
